# What was measured:
# Gal-3–8S–Gal-3 = target: T1, Gal-3–8S–Gal-3 (Homo sapiens, UniProt P17931); assay: isothermal titration calorimetry; format: binding; conditions: 25 °C, pH 7.2, 20 mM phosphate, 10 mM NaCl, 2 mM β-mercaptoethanol; one-set-of-sites model; lyophilized protein
# T1 construct: gene LGALS3; engineered covalent homodimer: two Gal-3 CRDs joined by the 33-residue Gal-8S linker peptide in one polypeptide, no tail; recombinant from bacteria
# Source text: isothermal titration calorimetry on Gal-3–8S–Gal-3
# Gal-3–Gal-3 [1] = target: T2, Gal-3–Gal-3 (Homo sapiens, UniProt P17931); assay: isothermal titration calorimetry; format: binding; conditions: 25 °C, pH 7.2, 20 mM phosphate, 10 mM NaCl, 2 mM β-mercaptoethanol, one-set-of-sites model, dissolved and dialyzed
# T2 construct: gene LGALS3; engineered covalent homodimer: two Gal-3 CRDs fused directly C- to N-terminus in one polypeptide, no tail; recombinant from bacteria
# T2 sequence (P17931 114-250 limits assumed): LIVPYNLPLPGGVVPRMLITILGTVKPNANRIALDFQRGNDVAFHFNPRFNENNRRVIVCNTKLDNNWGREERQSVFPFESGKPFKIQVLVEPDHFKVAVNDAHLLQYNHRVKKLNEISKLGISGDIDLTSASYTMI
# Source text: isothermal titration calorimetry on Gal-3–Gal-3
# Gal-3 CRD (trGal-3) = target: T3, Gal-3 CRD (trGal-3) (Homo sapiens, UniProt P17931); assay: isothermal titration calorimetry; format: binding; conditions: 25 °C, pH 7.2, 20 mM phosphate, 10 mM NaCl, 2 mM β-mercaptoethanol; one-set-of-sites model; lyophilized protein
# T3 construct: gene LGALS3; C-terminal carbohydrate recognition domain only, N-terminal tail proteolytically removed; recombinant from bacteria
# T3 sequence (P17931 114-250 limits assumed): as above
# Source text: isothermal titration calorimetry on Gal-3 CRD (trGal-3)
# [2] = target: T4, Gal-3 (full-length wild-type human galectin-3) (Homo sapiens, UniProt P17931); assay: isothermal titration calorimetry; format: binding; conditions: 25 °C, pH 7.2, 20 mM phosphate, 10 mM NaCl, 2 mM β-mercaptoethanol; one-set-of-sites model; lyophilized protein
# T4 construct: gene LGALS3; full-length with N-terminal tail (two Ser phosphorylation sites, nine collagen-like repeats) and CRD; monomeric in solution; biotinylated for tissue sections
# T4 sequence (P17931 2-250): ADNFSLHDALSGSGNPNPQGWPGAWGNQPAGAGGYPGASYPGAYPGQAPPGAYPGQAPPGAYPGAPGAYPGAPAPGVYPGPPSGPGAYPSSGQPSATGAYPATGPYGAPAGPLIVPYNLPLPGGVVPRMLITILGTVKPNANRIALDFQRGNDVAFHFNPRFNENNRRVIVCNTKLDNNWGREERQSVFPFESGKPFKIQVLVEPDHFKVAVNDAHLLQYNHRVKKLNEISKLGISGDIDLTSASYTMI
# Source text: isothermal titration calorimetry on Gal-3 (full-length wild-type human galectin-3)
# Gal-3–Gal-3 [3] = target: T2, Gal-3–Gal-3; assay: inhibition of biotinylated lectin staining, fixed murine jejunum sections; conditions: 0.5 mM Lac as part of glycocluster; labelled lectin 0.25 µg/mL
# [4] = target: T4, Gal-3 (full-length wild-type human galectin-3); assay: as above; conditions: 0.5 mM Lac as part of glycocluster; labelled lectin 4 µg/mL
# Gal-3–Gal-1 = target: T5, Gal-3–Gal-1; assay: isothermal titration calorimetry; format: binding, Homo sapiens; conditions: 25 °C, pH 7.2, 20 mM phosphate, 10 mM NaCl, 2 mM β-mercaptoethanol; one-set-of-sites model; protein precipitated, dissolved and dialyzed
# T5 construct: gene LGALS3; engineered heterodimer in one polypeptide: N-terminal Gal-3 CRD fused directly to Gal-1 CRD; recombinant from bacteria
# Source text: isothermal titration calorimetry on Gal-3–Gal-1
# Gal-1–8S–Gal-3 = target: T6, Gal-1–8S–Gal-3; assay: isothermal titration calorimetry; format: binding, Homo sapiens; conditions: 25 °C, pH 7.2, 20 mM phosphate, 10 mM NaCl, 2 mM β-mercaptoethanol; one-set-of-sites model; lyophilized protein (first of two preparations)
# T6 construct: gene LGALS1; engineered heterodimer in one polypeptide: N-terminal Gal-1 CRD, 33-residue Gal-8S linker, Gal-3 CRD; recombinant from bacteria
# Source text: isothermal titration calorimetry on Gal-1–8S–Gal-3
# Gal-1–Gal-3 = target: T7, Gal-1–Gal-3; assay: isothermal titration calorimetry; format: binding, Homo sapiens; conditions: 25 °C, pH 7.2, 20 mM phosphate, 10 mM NaCl, 2 mM β-mercaptoethanol; one-set-of-sites model; protein precipitated, dissolved and dialyzed
# T7 construct: gene LGALS1; engineered heterodimer in one polypeptide: N-terminal Gal-1 CRD fused directly to Gal-3 CRD; recombinant from bacteria
# Source text: isothermal titration calorimetry on Gal-1–Gal-3
# Gal-3–8S–Gal-1 = target: T8, Gal-3–8S–Gal-1; assay: isothermal titration calorimetry; format: binding, Homo sapiens; conditions: 25 °C, pH 7.2, 20 mM phosphate, 10 mM NaCl, 2 mM β-mercaptoethanol; one-set-of-sites model; lyophilized protein (first of two preparations)
# T8 construct: gene LGALS3; engineered heterodimer in one polypeptide: N-terminal Gal-3 CRD, 33-residue Gal-8S linker, Gal-1 CRD; recombinant from bacteria
# Source text: isothermal titration calorimetry on Gal-3–8S–Gal-1
# T1 sequence (P17931 114-250 limits assumed): as the sequence (P17931 114-250 limits assumed) above
Structure (SMILES),Kd (Gal-3–8S–Gal-3),Kd (Gal-3–Gal-3 [1]; protein precipitated),Kd (Gal-3 CRD (trGal-3)),Kd [2],staining inhibition (Gal-3–Gal-3 [3]),staining inhibition [4],Kd (Gal-3–Gal-3 [1]; protein precipitated with ammonium sulfate),Kd (Gal-3–Gal-1),Kd (Gal-1–8S–Gal-3),Kd (Gal-1–Gal-3),Kd (Gal-3–8S–Gal-1)
"CC(=O)N[C@H]1C(O)O[C@H](CO)[C@H](O)[C@@H]1O[C@@H]1O[C@H](CO)[C@H](O)[C@H](O)[C@H]1O (some centres unmarked) [Galβ1,3GalNAc]",157 ± 4.69 µM,288 ± 3.01 µM,264 ± 13.7 µM,222 ± 18.5 µM,–,–,–,–,–,–,–
OC[C@H]1O[C@@H](O[C@H]2[C@H](O)[C@@H](O)[C@H](n3cc(COc4ccc(C(=C(c5ccc(OCc6cn([C@@H]7O[C@H](CO)[C@@H](O[C@@H]8O[C@H](CO)[C@H](O)[C@H](O)[C@H]8O)[C@H](O)[C@H]7O)nn6)cc5)c5ccc(OCc6cn([C@@H]7O[C@H](CO)[C@@H](O[C@@H]8O[C@H](CO)[C@H](O)[C@H](O)[C@H]8O)[C@H](O)[C@H]7O)nn6)cc5)c5ccc(OCc6cn([C@@H]7O[C@H](CO)[C@@H](O[C@@H]8O[C@H](CO)[C@H](O)[C@H](O)[C@H]8O)[C@H](O)[C@H]7O)nn6)cc5)cc4)nn3)O[C@@H]2CO)[C@H](O)[C@@H](O)[C@H]1O [compound 2],–,–,–,–,extent of binding of the Gal-3–Gal-3 homodimer was less potently reduced,Signal for binding of Gal-3 was strongly reduced in cells of the villi,–,–,–,–,–
CC(=O)N[C@H]1C(O)O[C@H](CO)[C@@H](O[C@@H]2O[C@H](CO)[C@H](O)[C@H](O)[C@H]2O)[C@@H]1O (some centres unmarked) [LacNAc],29.4 ± 0.92 µM,–,45.6 ± 1.64 µM,37.5 ± 0.48 µM,–,–,36.2 ± 0.78 µM,49.7 ± 0.95 µM,48 ± 1.71 µM,59 ± 1.45 µM,60 ± 1.1 µM

# From article PMC7429544, “Influence of protein (human galectin-3) design on aspects of lectin activity” (Histochemistry and Cell Biology, 2020)
